“And” between values parts separate entries of the source, which are not always exact repeats. Equal values may be shown once.
Key:
[1] = test system: p16 gene expression in T24 cells; assay: RT-PCR analysis of p16 expression in T24 cells; format: cell-based, human
Procedure: The T24 cell line was obtained from the American Type Culture Collection (Rockville, Md.) and cultured in DMEM supplemented with 10% heat-inactivated fetal calf serum and 100 U/ml penicillin-streptomycin. Cultures were grown in a humidified incubator at 37° C. in an atmosphere of 5% CO2 in air.
Cells were plated (3×10^5 cells/100-mm dish) and treated 24 hours later with the indicated concentrations of compounds. The medium was either changed 24 hours or 48 hours after drug treatment.
DNA and RNA were isolated three days after treatment using the NucleoBond RNA/DNA Midi Kit (Clontech Laboratories, Inc., Palo Alto, Calif.).
Total RNA (˜10 μg) was reverse-transcribed using the following reagents: 100 units RNAsin (Promega Corp., Madison, Wis.), 0.1 M DTT (Life Technologies, Inc.), 1000 units of MMLV-RT (Life Technologies, Inc.), 1 mM deoxynucleotide triphosphates (Boehringer Mannheim, Germany), 75 μg/ml BSA, 1× MMLV-RT buffer (Life Technologies, Inc.), and 0.025 ODU Random Hexamers (Amersham-Pharmacia Biotech, Piscataway, N.J.). The reaction mixture was incubated for 10 minutes at 25° C., 45 minutes at 42° C., 3 minutes at 90° C., and chilled for 5 minutes at 4° C., during which time 1.25 μl of MMLV-RT (200 U/μl) were added and the sample then incubated for 45 minutes at 42° C., 10 minutes at 75° C., and stored at −20° C.
cDNA was amplified with primers specific for either p16 or GAPDH. Briefly, PCR reactions were performed in 25-μl volumes at 94° C. for 3 minutes, 28 cycles at 94° C. for 1 minute, 56° C. for 30 seconds, 72° C. for 40 seconds, and a final extension step at 72° C. for 5 min (p16 amplification), and 94° C. for 1 minute, 19 cycles at 94° C. for 1 minute, 58° C. for 30 seconds, 72° C. for 45 seconds, and a final extension step at 72° C. for 2 minutes (GAPDH amplification).
PCR amplifications were performed with cDNA template concentration equivalent to 100 ng of RNA in 10% DMSO. All reactions were analyzed in the linear range of amplification. PCR products were resolved on 2% agarose gels and subsequently transferred to a nylon membrane (Zetaprobe; Bio-Rad, Richmond, Calif.) under alkaline conditions. All blots were hybridized with a γ-^32P-labeled internal oligonucleotide probe, using protocols previously described (Xiong and Laird, Nuc. Acids Res. 25:2532-2534, 1997).
Since 5-Aza-CdR has been shown previously to induce p16 expression in a dose-dependent manner (Bender et al., Cancer Res. 58:95-101, 1998), the two ribonucleoside analogs 5-Aza-CR and Zeb were examined to determine their abilities to induce p16 expression (FIG. 8). Because Zeb is stable in aqueous solution, the effect of prolonging Zeb treatment on p16 expression was tested by treating these cells with different concentrations of Zeb for either 24 hours or 48 hours. RT-PCR was then performed to determine whether p16 gene was induced by drug treatment.

[2] = test system: DNA methylation of the am^RIP and ψ63 sequences; assay: Southern blot analysis of DNA methylation in N. crassa (Dpn II vs Sau3AI digests); format: cell-based, Neurospora crassa; settings: 12 and 24 μM 5-AC; 0.33 and 3.3 μM TSA; 20, 39, 78, 160 and 310 μM Zebularine
Procedure: DNA was digested with Dpn II (D) or Sau3AI (S), fractionated by gel electrophoresis, transferred to a membrane and probed for am (FIG. 4A) or ψ63 (FIG. 4B) sequences. Dpn II and Sau3AI both recognize the sequence GATC, but Sau3AI fails to cleave if the C residue is methylated. Thus, differences between S and D lanes are indicative of DNA methylation.
The ramp symbols at the top of the figure represent increasing concentrations of drug. Drug concentrations were 12 and 24 μM 5-AC; 0.33 and 3.3 μM TSA; and 20, 39, 78, 160 and 310 μM Zebularine. The positions of selected size standards (kb) are indicated.
Southern hybridizations were performed on DNA samples (−1 μg) isolated from liquid cultures inoculated with 7×10^4 conidia/ml. DNA was digested with Dpn II (D) or Sau3AI (S), fractionated by gel electrophoresis, transferred to a nylon membrane and probed for am^RIP (FIG. 4A) or ψ63 (FIG. 4B) sequences. The restriction endonucleases Dpn II and-Sau3AI both recognize the sequence GATC, but Sau3AI fails to cleave if the C residue is methylated. Drug concentrations were […] 5-AC, 0.33 and 3.3 μM TSA, and […] Zebularine.
The positions of selected size standards (kb) and the origin (ori) are indicated. […] Differences between S and D lanes are indicative of DNA methylation.

p3 locus = assay: Ms-SNuPE quantitation of DNA methylation in 10T1/2 cells; format: cell-based, mouse; settings: 24 hours, control 86
Procedure: The average methylation at defined CpG sites was quantitated using a Ms-SNuPE assay, as described by Gonzalgo and Jones (Nucleic Acids Res. 25:2529-2531, 1997) and U.S. Pat. No. 6,251,594. Briefly, genomic DNA (˜4 μg) was digested overnight with 4 units of EcoRI (Boehringer Mannheim) (p16 promoter/exon 1 and p16 exon 2; FIG. 9A) or with 4 units of RsaI (Boehringer Mannheim) (P3; FIG. 9B) to cut outside the region of interest.
After standard treatment with sodium bisulfite, a PCR product of the region was generated as template for top-strand methylation analysis. The sequences of the primers used for bisulfite-treated DNA amplification were as follows: […]
P3: 95° C. for 2 minutes, 95° C. for 1 minute, 50° C. for 50 seconds, and 72° C. for 1 minute for 40 cycles, with a final extension at 72° C. for 10 minutes.
Duplicates of 4 μl of template were then added to 6 μl of mixture consisting of 1× PCR buffer, 1 μM final concentration primers, 1 μCi of [^32P]dCTP or dTTP, and 1 unit 1:1 Taq/TaqStart antibody (Clontech, Palo Alto, Calif.). Single nucleotide extension involved incubation at 95° C. for 1 minute, then 50° C. for 2 minutes, and finally 72° C. for 1 minute (p16 promoter/exon1 and P16 exon 2) and 95° C. for 1 minute, then 46° C. for 30 seconds, and finally 72° C. for 20 seconds (P3). The sequences for SNuPE primers were as follows: […]
After briefly spinning down the tubes, 4 μl of stop solution were added to the 10-μl reaction volume, and the samples were boiled for 5 minutes at 95° C. before loading 1.5 μl onto a 15% denaturing polyacrylamide gel (7 M urea). The gel was run at 90 W for 1.5 hours and then dried at 80° C. for 40 minutes. The gel was exposed to a phosphorimaging cassette for quantitation of the ratio of [^32P]dCTP versus [^32P]dTTP incorporation, and the quantitation of the percent methylation was averaged from three separate CpG sites. The gel was then exposed to BioMax MR film (Kodak) to record experimental results.

| SMILES | p16 expression (RT-PCR) ([1]; 300 μM for 24 hours) | p16 expression (RT-PCR) ([1]; 300 μM for 48 hours) | p16 expression (RT-PCR) ([1]; 500 μM for 24 hours) | effect on DNA methylation (Southern blot) [2] | % Methylation (p3 locus; 10 μM) | % Methylation (p3 locus; 30 μM) | p16 expression (RT-PCR) ([1]; 3 μM) | p16 expression (RT-PCR) ([1]; 100 μM) | highest p16 expression level relative to that with 3 μM 5-Aza-CdR ([1]; 100 μM 5-Aza-CR vs 3 μM 5-Aza-CdR) | % Methylation (p3 locus; 1 μM) | % Methylation (p3 locus; 3 μM) |
| --- | --- | --- | --- | --- | --- | --- | --- | --- | --- | --- | --- |
| O=c1ncccn1[C@@H]1O[C@H](CO)[C@@H](O)[C@H]1O [Zebularine, 1-β-ribofuranosyl-1,2-dihydropyrimidin-2-one] | insufficient to induce p16 expression | p16 expression was induced | p16 expression was induced | inhibits DNA methylation globally | 75 +/− 2% | 58% and 58 +/− 1% | – | – | – | – | – |
| Nc1ncn([C@@H]2O[C@H](CO)[C@@H](O)[C@H]2O)c(=O)n1 [5-Aza-CR, 5-azacytidine, reference compound] | – | – | – | inhibits DNA methylation globally | – | – | no expression | significant expression | one-fifth | 65 +/− 2% | 59% and 59 +/− 6% |

Reference: patent publication US8207142B2, “Inhibitor of DNA methylation” (priority 2001, dated 2012)
